Measurements published in patent US8853424B2 (Japan Science and Technology Agency, priority 2008, dated 2014).

Tests used:
[1] = tested on: transglutaminase (TGase); test: Measurement of TG (TGase inhibitory activity, monodansyl cadaverine / N,N-dimethylcasein fluorescence, FDSS 3000); assay type: biochemical
Outline: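 Compound (1 μL of 10 mM stock) added to 0.1 mL reaction: 100 mM HEPES-NaOH pH 7.5, 1 mM CaCl2, 20 μM monodansyl cadaverine, 0.05 mg/mL N,N-dimethylcasein, 5 μg/mL TGase. Rate of fluorescence change at 340 nm measured; DMSO control set to 100; TG50 is the concentration halving activity.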

[2] = tested on: Truncated N-terminal huntington 150 Q-EGFP-Neuron 2a cells; test: Measurement of x-Fold (polyglutamine aggregation inhibitory activity); assay type: cell-based
Description: In the present invention, the polyglutamine aggregation inhibitory activity (x-Fold) can be measured, for example, by the method described in the Example.
The number of the aggregated cells, and the total number of cells were counted by Array Scan V T1 (manufactured by Cellomics, Pittuburg, USA), and the ratio of the aggregated cells to the total number of cells was determined (x-Fold). […]

[3] = TGase activity with compound (10 mM, 1 μL in 0.1 ml enzyme reaction solution), DMSO control taken as 100
[4] = ratio of aggregated cells to total number of cells, compound 20 μM, 20 hr, almost 1 without compound, smaller = stronger inhibition
[5] = TGase inhibitory activity value, Table 1
[6] = polyglutamine aggregation inhibitory activity, Table 1
[7] = TGase inhibitory activity measurement, unit not given
[8] = polyglutamine aggregation, Truncated N-terminal huntington 150 Q-EGFP-Neuron 2a cells

Compound | TGase activity remaining (% of DMSO control = 100) [1, 3] | TGase activity remaining (% of DMSO control = 100) [1, 5] | TGase activity remaining (% of DMSO control = 100) [1, 7] | TGase activity remaining (% of DMSO control = 100) ([1]; TGase inhibitory activity value, Table 1, listed as 6095) | TGase activity remaining (% of DMSO control = 100) ([1]; TGase inhibitory activity value, Table 1, listed as 3003) | x-Fold [2, 4] | x-Fold [2, 6] | x-Fold [2, 8] | x-Fold ([2]; polyglutamine aggregation inhibitory activity, Table 1, listed as 6095) | x-Fold ([2]; polyglutamine aggregation inhibitory activity, Table 1, listed as 3003)
Fc1ccc(NCCOBc2cccc(COCc3cccc(BOCCNc4ccc(F)cc4)c3)c2)cc1 [Example 337, bis(3-(4-fluorophenylaminoethoxyboryl)benzyl)ether] | 102 | 102 | – | – | – | 0.98 | 0.98 | – | – | –
CC(C)(C)B(OCCN)c1ccccc1 [Example 111, aminoethyl tertiary-butyl phenylborinate] | 121 | 121 | – | – | – | 1.02 | 1.02 | – | – | –
N#Cc1ccc(B(OCc2ccccn2)c2ccc(C#N)cc2)cc1 [Example 104, 2-pyridylmethyl bis(4-cyanophenyl)borinate] | 94 | 94 | – | – | – | 1.16 | 1.16 | – | – | –
COc1ccc(B(O)c2cccc(COCc3cccc(B(O)c4ccc(OC)cc4)c3)c2)cc1 [Example 328, bis(3-(4-methoxyphenylhydroxyboryl)benzyl)ether] | 100 | – | – | – | – | 1.04 | – | – | – | –
OB(c1ccc(F)c(Cl)c1)c1ccc(F)c(Cl)c1 [Example 76, bis(3-chloro-4-fluorophenyl)borinic acid] | 117 | 117 | – | – | – | 0.78 | 0.78 | – | – | –
N#Cc1cccc(B(O)c2cccc(C#N)c2)c1 [Example 306, 3,3′-di(cyano-phenyl)borinic acid] | 90 | 90 | – | – | – | 0.98 | 0.98 | – | – | –
Cc1ccc(B(OCCC2CCCCN2)c2ccc(C)c(Cl)c2)cc1Cl (stereo not shown) [Example 248] | 103 | – | – | – | – | 0.87 | – | – | – | –
N#Cc1ccc(B(O)c2cccc(COCc3cccc(B(O)c4ccc(C#N)cc4)c3)c2)cc1 [Example 345, bis(3-(4-cyanophenylhydroxyboryl)benzyl)ether] | 95 | 95 | – | – | – | 0.92 | 0.92 | – | – | –
N#Cc1ccc(B(O)c2ccc(C#N)cc2)cc1 [Example 305, 4,4′-di(cyano-phenyl)borinic acid] | 94 | – | – | 94 | – | 0.98 | – | – | 0.98 | –
NCCOB(c1cc(F)c(F)c(F)c1)c1cc(F)c(F)c(F)c1 [Example 89, aminoethyl bis(3,4,5-trifluorophenyl)borinate] | 80 | 80 | – | – | – | 0.94 | 0.94 | – | – | –
OB(c1ccccc1)c1ccc(B(O)c2ccccc2)c2ccccc12 [Example 135, 1,4-bis(phenylhydroxyboryl)naphthalene] | 99 | 99 | – | – | – | 1.03 | 1.03 | – | – | –
bis((4,4′-phenyldimethylaminoethoxyboryl)benzyloxybenzyl)dimethylamino-ethoxyborane [Example 191] | 85 | 85 | – | – | – | 1.04 | 1.04 | – | – | –
Cc1ccc(Cl)cc1B(OCC1CCCCN1)c1cc(Cl)ccc1C (stereo not shown) [Example 371] | – | 98 | – | – | – | – | 1.17 | – | – | –
CN(C)CCOB(c1ccc(Cl)c(F)c1)c1ccc(Cl)c(F)c1 [Example 94, dimethylaminoethyl bis(4-chloro-3-fluorophenyl)borinate] | 114 | 114 | – | – | – | 0.95 | 0.95 | – | – | –
Cc1c(Cl)cccc1B(O)c1cccc(Cl)c1C [Example 200, di(3-chloro-2-methylphenyl)borinic acid] | 100 | – | – | – | – | 0.92 | – | – | – | –
COc1ccc(C(OB(c2ccc(C)c(Cl)c2)c2ccc(C)c(Cl)c2)c2ccccn2)cc1 (stereo not shown) [Example 127, bis(3-chloro-4-methylphenyl) 2-pyridyl-4-methoxyphenylmethoxyborane] | 109 | 109 | – | – | – | 0.70 | 0.70 | – | – | –
CN(C)CCOB(c1ccccc1)c1ccc(COCc2ccc(B(OCCN(C)C)c3ccccc3)cc2)cc1 [Example 198, bis(4,4′-(phenyldimethylaminoethoxyboryl)benzyl)ether] | 28 | – | – | – | 28 | 0.8 | – | – | – | 0.8
c1ccc(B(OCc2ccccn2)c2ccc(COCc3ccc(B(OCc4ccccn4)c4ccccc4)cc3)cc2)cc1 [Example 184, di(4-(phenyl-2-pyridylmethoxyboryl)benzyl)ether] | 94 | 94 | – | – | – | 0.95 | 0.95 | – | – | –
CCC(C)B(O)c1ccccc1 (stereo not shown) [Example 107, secondary-butyl phenyl borinic acid] | 111 | 111 | – | – | – | 0.98 | 0.98 | – | – | –
COc1ccc(NCCOBc2cccc(COCc3cccc(BOCCNc4ccc(OC)cc4)c3)c2)cc1 [Example 343, bis(3-(4-methoxyphenylaminoethoxyboryl)benzyl)ether] | 55 | 55 | – | – | – | 1.02 | 1.02 | – | – | –

Further lines, with some results ahead:

TGase activity remaining (% of DMSO control = 100) [1, 3] | TGase activity remaining (% of DMSO control = 100) [1, 5] | TGase activity remaining (% of DMSO control = 100) [1, 7] | TGase activity remaining (% of DMSO control = 100) ([1]; TGase inhibitory activity value, Table 1, listed as 6095) | TGase activity remaining (% of DMSO control = 100) ([1]; TGase inhibitory activity value, Table 1, listed as 3003) | Compound | x-Fold [2, 4] | x-Fold [2, 6] | x-Fold [2, 8] | x-Fold ([2]; polyglutamine aggregation inhibitory activity, Table 1, listed as 6095) | x-Fold ([2]; polyglutamine aggregation inhibitory activity, Table 1, listed as 3003)
117 | – | – | – | – | NC(CCC(=O)O)C(=O)OB(c1ccccc1)c1ccc(Oc2ccc(B(OC(=O)C(N)CCC(=O)O)c3ccc(CO)cc3)cc2)cc1 (stereo not shown) [Example 393, (4-(phenyl-glutamic acid boryl)phenyl)(4′-(hydroxymethylphenyl-glutamic acid boryl)phenyl)ether] | 0.56 | – | – | – | –
45 | – | 45 | – | – | CN(C)CCOB(c1ccc(COCc2ccc(B(OCCN(C)C)c3ccc(F)c(F)c3)cc2)cc1)c1ccc(F)c(F)c1 [Example 418, bis(4,4′-(3,4-difluorophenyl-N,N-dimethylaminoethoxyboryl)benzyl)ether] | 1.02 | – | 1.02 | – | –
44 | 44 | – | – | – | NCCOB(c1ccc(C(F)(F)F)cc1)c1c2ccccc2c(B(OCCN)c2ccc(C(F)(F)F)cc2)c2ccccc12 [Example 375] | 1.05 | 1.05 | – | – | –
55 | 55 | – | – | – | OB(c1ccccc1)c1cccc(-c2cccc(B(O)c3ccccc3)n2)n1 [Example 381, 6,6′-(phenylhydroxyboryl)-2,2′-dipyridyl] | 0.80 | 0.80 | – | – | –
88 | 88 | – | – | – | CC(C)(C)c1cc(B(OCCN)c2ccccc2)c2c(c1)C(C)(C)c1cc(C(C)(C)C)cc(B(OCCN)c3ccccc3)c1O2 [Example 378, 4,5-di(phenylaminoethoxyboryl)-2,7-di-tert-butyl-9,9-dimethylxanthrene] | 0.79 | 0.79 | – | – | –
75 | 75 | – | – | – | NCCOB(c1cccc(COCc2cccc(B(OCCN)c3cccc4ccccc34)c2)c1)c1cccc2ccccc12 [Example 376, bis(3-(1-naphthylaminoethoxyboryl)benzyl)ether] | 0.93 | 0.93 | – | – | –
−12 | – | −12 | – | – | CNCCOB(c1ccc(COc2ccc(B(OCCNC)c3ccc(C(F)(F)F)cc3)cc2)cc1)c1ccc(C(F)(F)F)cc1 [Example 402, (4′-trifluoromethylphenyl-N-methylaminoethoxyboryl)-4-phenyl(4′-trifluoromethylphenyl-N-methylaminoethoxyboryl-4-benzyl)ether] | 0.57 | – | 0.57 | – | –
97 | – | 97 | – | – | Cc1ccc2cccc(OB(c3ccccc3)c3ccc(Oc4ccc(B(Oc5cccc6ccc(C)nc56)c5ccccc5)cc4)cc3)c2n1 [Example 477, bis(4,4′-(phenyl-2-methyl-8-quinolinooxyboryl)phenyl)ether] | 1.02 | – | 1.02 | – | –
53 | – | 53 | – | – | Cc1ccc(B(OC(=O)C(N)CCCCN)c2ccc(Oc3ccc(B(OC(=O)C(N)CCCCN)c4ccc(C)cc4)cc3)cc2)cc1 (stereo not shown) [Example 450, bis(4,4′-(tolyllysineboryl)phenyl)ether] | 0.49 | – | 0.49 | – | –
